Results from patent US20130029976A1, “PEST CONTROLLING COMPOSITION” (SUMITOMO CHEMICAL COMPANY, LIMITED, priority 2010, published 2013).

Test system: third instar larvae of Spodoptera litura
Assay: Test Example 1: cabbage leaf immersion test, insecticidal ratio
Type: in vivo
Conditions: cabbage leaf immersed 60 seconds, 2 days after, three replications
Description: A flowable formulation containing 10.0% by weight of pyridalyl (trade name: Pleo® flowable, manufactured by Sumitomo Chemical Co., Ltd.) was diluted with water containing 0.02% by volume of a spreading agent (trade name: Sindain®, manufactured by Sumitomo Chemical Co., Ltd.) so as to adjust the concentration of pyridalyl to 12.5 ppm.
A flowable formulation containing 10.0% by weight of indoxacarb (trade name: Tornado® flowable, manufactured by DuPont) was diluted with water containing 0.02% by volume of a spreading agent (trade name: Sindain®, manufactured by Sumitomo Chemical Co., Ltd.) so as to adjust the concentration of indoxacarb to 6.25 ppm.
The water dilution of pyridalyl and the water dilution of indoxacarb were mixed in the same amount to prepare a test chemical solution.
A cabbage was planted in a pot having a volume of 860 ml and grown to the forth leaf stage. Each leaf of the cabbage seedling was cut off. One leaf of the cabbage was immersed in the test chemical solution for 60 seconds. After air-drying, the leaf was placed in a cup having a volume of 500 ml in which filter paper had been spread on the bottom. In the cup, 10 third instar larvae of Spodoptera litura were released (the inside of the cup containing the treated cabbage was regarded as the treated area). […]
An insecticidal ratio was calculated by correcting the results using the following equation. […]

| Structure (SMILES) | Insecticidal ratio (%) (active ingredient 6.25 ppm) | Insecticidal ratio (%) (active ingredient 3.13 ppm) |
| --- | --- | --- |
| FC(F)(F)c1ccc(OCCCOc2c(Cl)cc(OCC=C(Cl)Cl)cc2Cl)nc1 [Pyridalyl, 2-[3-[2,6-dichloro-4-[(3,3-dichloro-2-propenyl)oxy]phenoxy]propoxy]-5-(trifluoromethyl)pyridine] | 10.0 |  |
| COC(=O)N(C(=O)N1CO[C@@]2(C(=O)OC)Cc3cc(Cl)ccc3C2=N1)c1ccc(OC(F)(F)F)cc1 [Indoxacarb, methyl(4aS)-7-chloro-2,5-dihydro-2-[[(methoxycarbonyl)[4-(trifluoromethoxy)phenyl]amino]carbonyl]indeno[1,2-e] [1,3,4]oxadiazine-4a(3H)-carboxylate] |  | 16.7 |
